# Measured values published in patent publication US20250361268A1, “NOVEL ANTI-INFLAMMATORY PEPTIDE AND USE THEREOF” (NOVACELL TECHNOLOGY INC., priority 2022, published 2025).
# Peptide text beside a SMILES is read from it.
# Key:
# FPR2 = target: T1, FPR2 (Homo sapiens, UniProt P25090); experiment: Change in calcium activity by peptide (Fura-2) in RBL cells overexpressing FPR2; type: cell-based; details: calcium activity (Fura-2), graded per Table 3, read-out: EC50 for [Ca^2+] FPR2
# T1 construct: expressed in transfected cells; host or cells: RBL cells (RBL-FPR2)
# T1 sequence (P25090 1-351): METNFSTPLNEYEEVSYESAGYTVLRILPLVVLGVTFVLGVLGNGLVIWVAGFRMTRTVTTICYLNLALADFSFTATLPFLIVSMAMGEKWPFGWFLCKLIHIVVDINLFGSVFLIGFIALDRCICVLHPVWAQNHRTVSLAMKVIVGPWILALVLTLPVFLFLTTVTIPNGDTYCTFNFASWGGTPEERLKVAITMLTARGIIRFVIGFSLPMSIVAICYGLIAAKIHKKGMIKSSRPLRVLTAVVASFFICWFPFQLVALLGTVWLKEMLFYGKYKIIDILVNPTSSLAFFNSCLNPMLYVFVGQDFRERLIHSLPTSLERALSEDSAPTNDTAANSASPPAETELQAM
# Method in brief: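 Peptide-induced intracellular calcium change measured by Fura-2 fluorescence on a plate reader. Cells: RBL line overexpressing FPR2, dye-loaded 1 h at 37 °C then 30 min at RT in dark; peptides from 0.5 mM water/50% DMSO stocks, diluted in HBSS with 20 mM HEPES.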
# FPR1 = target: T2, FPR1 (Homo sapiens, UniProt P21462); experiment: Change in calcium activity by peptide, FPR1 activation effect; type: cell-based; details: calcium activity (Fura-2), graded per Table 3, read-out: EC50 for [Ca^2+] FPR1
# T2 sequence (P21462 1-350): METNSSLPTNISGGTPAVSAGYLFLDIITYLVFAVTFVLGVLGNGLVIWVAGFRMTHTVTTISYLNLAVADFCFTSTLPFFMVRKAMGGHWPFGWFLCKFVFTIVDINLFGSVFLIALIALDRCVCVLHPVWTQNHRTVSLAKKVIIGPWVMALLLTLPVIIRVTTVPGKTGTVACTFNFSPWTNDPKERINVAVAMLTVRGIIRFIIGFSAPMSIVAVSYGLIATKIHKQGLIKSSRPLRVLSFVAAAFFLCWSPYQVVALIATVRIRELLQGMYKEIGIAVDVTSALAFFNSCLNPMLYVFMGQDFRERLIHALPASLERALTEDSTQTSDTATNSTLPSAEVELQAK
# Method in brief: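 Calcium flux induced by peptide addition was monitored on a FlexStation 3 plate reader. Before this, cells seeded a day earlier (3×10^5/well) took up the Fura-2 dye for 1 h at 37 °C plus 30 min dark at room temperature.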
# RAW264.7 cell line = experiment: Cytokine inhibition ability: LPS-induced cytokine gene expression in RAW264.7 macrophages; type: cell-based, mouse; details: grade of reduction rate of gene expression, peptide 100 nM, LPS 200 ng/mL, 6 hours
# Method: The present inventors observed the cytokine inhibition ability of the immunomodulatory peptide candidates prepared according to one example of the present invention. Specifically, to confirm whether the peptides reduce inflammatory responses in cells, changes in cytokine gene expression in cells upon inflammation was measured.
# The present inventors used a RAW264.7 cell line, that is, mouse macrophages, and used lipopolysaccharide (LPS; Sigma-Aldrich, #L2630), which is the main component of a gram-negative bacterial cell wall, as a material causing an inflammatory response. A peptide that had been dissolved in water at 100 μM was prepared.
# In the present experiment, the cells were cultured in a DMEM (Lonza, #BE12-604F) containing 10% FBS and 1% penicillin-streptomycin under conditions of 37° C. and 5% CO2.
# The cells were plated in a 24-well plate (Costar, #3603) at a density of 2.5×10^5 cells/well. After 24 hours, the prepared cells were treated with the peptide at 100 nM. After incubation at 37° C. for 30 minutes, to induce inflammation, 200 ng/mL of LPS was treated. After incubation at 37° C. for 6 hours, the cells in a medium-free state were treated with TRIzol™ (Invitrogen, #15596018) to lyse the cells. Through the given experimental method, RNA was obtained, cDNA was produced using a reverse transcriptase (Promega, #M1705). Afterward, a cytokine expression level was measured using SYBR Green (Enzynomics, RT530) and mouse primers of each inflammatory cytokine gene (TNFα, IL-6, and IL-1β).
smiles,measurement,setting,value
CCCCCCCC(=O)N[C@@H](CCCNC(=N)N)C(=O)N[C@@H](CCSC)C(=O)N[C@@H](CCCNC(=N)N)C(=O)N[C@@H](Cc1ccc(O)cc1)C(=O)N[C@@H](Cc1c[nH]c2ccccc12)C(=O)N[C@@H](Cc1ccc(O)cc1)C(=O)N[C@H](CCSC)C(N)=O [Peptide 84] (HELM PEPTIDE1{[CCCCCCCC(=O)[*:2]].R.M.R.Y.W.Y.[dM].[am]}$$$$V2.0),EC50,FPR2,11 to 100 nM
same,EC50,FPR1,> 10000 nM
same,Cytokine inhibition ability IL-1β,RAW264.7 cell line,B (61%-80%)
same,Cytokine inhibition ability IL-6,RAW264.7 cell line,E (0%-20%)
same,Cytokine inhibition ability TNFα,RAW264.7 cell line,A (81%-100%)
CSCC[C@H](NC(=O)[C@H](CCCNC(=N)N)NC(C)=O)C(=O)N[C@@H](CCCNC(=N)N)C(=O)N[C@@H](Cc1ccc(O)cc1)C(=O)N[C@@H](CCCCN)C(=O)N[C@@H](Cc1ccc(O)cc1)C(=O)N[C@H](CCSC)C(N)=O [Peptide 39] (HELM PEPTIDE1{[ac].R.M.R.Y.K.Y.[dM].[am]}$$$$V2.0),EC50,FPR2,11 to 100 nM
same,EC50,FPR1,> 10000 nM
same,Cytokine inhibition ability IL-1β,RAW264.7 cell line,B (61%-80%)
same,Cytokine inhibition ability IL-6,RAW264.7 cell line,D (21%-40%)
same,Cytokine inhibition ability TNFα,RAW264.7 cell line,B (61%-80%)
CSCC[C@H](N)C(=O)N[C@@H](CCCCN)C(=O)N[C@@H](Cc1ccc(O)cc1)C(=O)N[C@@H](CCCCN)C(=O)N[C@H](C(=O)N[C@H](CCSC)C(N)=O)C(C)C [Peptide 17] (HELM PEPTIDE1{M.K.Y.K.V.[dM].[am]}$$$$V2.0),EC50,FPR2,< 10 nM
same,EC50,FPR1,> 10000 nM
same,Cytokine inhibition ability IL-1β,RAW264.7 cell line,B (61%-80%)
same,Cytokine inhibition ability IL-6,RAW264.7 cell line,D (21%-40%)
same,Cytokine inhibition ability TNFα,RAW264.7 cell line,B (61%-80%)
CCCCCCCC(=O)N[C@@H](CCCCN)C(=O)N[C@@H](CCSC)C(=O)N[C@@H](CCCCN)C(=O)N[C@@H](Cc1ccc(O)cc1)C(=O)N[C@@H](CCCCN)C(=O)N1CCC[C@H]1C(=O)N[C@H](CCSC)C(N)=O [Peptide 69] (HELM PEPTIDE1{[CCCCCCCC(=O)[*:2]].K.M.K.Y.K.P.[dM].[am]}$$$$V2.0),EC50,FPR2,11 to 100 nM
same,EC50,FPR1,> 10000 nM
same,Cytokine inhibition ability IL-1β,RAW264.7 cell line,A (81%-100%)
same,Cytokine inhibition ability IL-6,RAW264.7 cell line,C (41%-60%)
same,Cytokine inhibition ability TNFα,RAW264.7 cell line,B (61%-80%)
CSCC[C@H](N)C(=O)N[C@@H](CCCCN)C(=O)N[C@@H](Cc1ccc(O)cc1)C(=O)N[C@@H](CCCCN)C(=O)N1CCC[C@H]1C(=O)N[C@H](CCSC)C(N)=O [Peptide 70] (HELM PEPTIDE1{M.K.Y.K.P.[dM].[am]}$$$$V2.0),EC50,FPR2,< 10 nM
same,EC50,FPR1,> 10000 nM
same,Cytokine inhibition ability IL-1β,RAW264.7 cell line,A (81%-100%)
same,Cytokine inhibition ability IL-6,RAW264.7 cell line,D (21%-40%)
same,Cytokine inhibition ability TNFα,RAW264.7 cell line,C (41%-60%)
CCCCCCCC(=O)N[C@@H](CCSC)C(=O)N[C@@H](CCCCN)C(=O)N[C@@H](Cc1ccc(O)cc1)C(=O)N[C@@H](Cc1c[nH]c2ccccc12)C(=O)N1CCC[C@H]1C(=O)N[C@H](CCSC)C(N)=O [Peptide 116] (HELM PEPTIDE1{[CCCCCCCC(=O)[*:2]].M.K.Y.W.P.[dM].[am]}$$$$V2.0),EC50,FPR2,11 to 100 nM
same,EC50,FPR1,1000 to 10000 nM
same,Cytokine inhibition ability IL-1β,RAW264.7 cell line,B (61%-80%)
same,Cytokine inhibition ability IL-6,RAW264.7 cell line,B (61%-80%)
same,Cytokine inhibition ability TNFα,RAW264.7 cell line,B (61%-80%)
CSCC[C@H](NC(C)=O)C(=O)N[C@@H](CCCCN)C(=O)N[C@@H](Cc1ccc(O)cc1)C(=O)N[C@@H](CCCCN)C(=O)N1CCC[C@H]1C(=O)N[C@H](CCSC)C(N)=O [Peptide 71] (HELM PEPTIDE1{[ac].M.K.Y.K.P.[dM].[am]}$$$$V2.0),EC50,FPR2,11 to 100 nM
same,EC50,FPR1,> 10000 nM
same,Cytokine inhibition ability IL-1β,RAW264.7 cell line,A (81%-100%)
same,Cytokine inhibition ability IL-6,RAW264.7 cell line,C (41%-60%)
same,Cytokine inhibition ability TNFα,RAW264.7 cell line,C (41%-60%)
